Experimental data as given in patent US20250052985A1, “SYSTEM AND METHOD FOR QUANTITATIVE PHASE IMAGING FOR MULTI-PARAMETRIC SCREENING OF TUMOR THERAPY RESPONSE” (UNIVERSITY OF UTAH RESEARCH FOUNDATION, priority 2023, published 2025).
Several values for one entry are separate records, joined by “and”; a condition that tells them apart may be missing. Equal entries are not always repeated. Where two headings read alike, the source gives them in different places.

Key:
[1] = test system: MCF-7 cells; experiment: cells; details: for Hill Slope / log10(EC50): MCF-7, Hill fit; for EC50: Homo sapiens
Description: (§1) In some embodiments, breast cancer cell lines are imaged, representing diverse clinical subtypes, summarized in Table 2 below, using a QPI microscope (FIG. 1A) based on differential phase contrast (DPC) microscopy and phase reconstruction via a QPI microscope system. DPC is used for image acquisition and phase reconstruction because DPC's flexible design may be customized for high throughput phase measurements. […] As illustrated in the embodiment of FIG. 1A, a QPI microscope system 100 conducts assays in a 96-well plate (e.g., a well-plate 105) with 6-point dose response curves and up to five therapies in triplicate including solvent controls, summarized in Table 4 below. As described below, in reference to FIG. 1A, a growth response of cells is measured noninvasively using QPI via a QPI microscope system 110 before being assayed using a CTG reader 115.
(§2) FIG. 1B illustrates a timeline plot 200 showing two plates (e.g., two, separate well-plates 105) set up in parallel to measure cell viability. With reference to FIG. 1B, two plates are set-up simultaneously for each experiment. A first plate 205 is incubated for 27 hours (h) post drug exposure prior to CTG analysis (3 h equilibration+24 h of imaging), which measures cell adenosine triphosphate (ATP) content as a surrogate for cell viability. A second plate 210 is imaged for 72 h after 3 h equilibration (e.g., 75 h) and followed by CTG. […] The imaging locations are imaged for 72 h, as shown by images 1700-1715 of FIG. 7.
(§3) In some embodiments, a dose-dependent change in growth, as indicated by a change in the rate of mass accumulation or loss, is a parameter that can be extracted from QPI dose-response data. […] Individual specific growth rate measurements are indicated by points in the distribution of the graph 1200 of FIG. 2A. Blue is indicative of the DMSO control and red is indicative of doxorubicin. The black outline is a kernel density function fit to the distribution of specific growth rates for each condition (e.g., *p<0.05, **p<0.01). In some embodiments, the average SGR of each condition is fit to a sigmoid dose-response curve using a Hill equation. For example, computed logistic fit parameters using a 4-parameter Hill model via the QPI microscope system 110 for all conditions are summarized in Tables 5-8 below. To determine if there is a response, as illustrated by FIG. 2B, the QPI microscope system 110 tests goodness of fit, adjusts for degrees of freedom using an F-test at significance p<0.01 by comparison to a flat line, as an indicator of no response. For cases with a better fit to the Hill equation, the 4-parameter Hill curve may be used by the QPI microscope system 110 to determine the EC50, a measure of sensitivity to therapy because it represents the effective concentration at which 50% of the cells respond to therapy, as illustrated by FIG. 10. […] A 4-parameter Hill curve is fit to each dose response plot to extract the depth of response and EC50 for each cell/drug pair. A flat line represents no response due to failure of the F-test to reject the null hypothesis that the logistic fit is indistinguishable from a flat line. […] Each color indicates a different drug or therapy used.

[2] = test system: MDA-MB-231 cells; experiment: Quantitative phase imaging (QPI) growth response, MDA-MB-231; format: cell-based; parameters: DoR QPI: scale not given here; ToR 20 μM: unit not given here; details: for Max Asymptote / Min Asymptote: MDA-MB-231, 4-parameter Hill fit of mean SGR vs concentration, one line per replicate; for EC50: Homo sapiens; for SGR (specific growth rate) / tD: one individual MDA-MB-231 cell, 2 μM doxorubicin
Description: as §1, §2, §3

[3] = test system: BT-474 cells; experiment: CellTiter-Glo (CTG) ATP viability assay, BT-474; format: cell-based; details: for EC50: Homo sapiens
Protocol: (§4) CTG (e.g., read by the CTG reader 115) is a cell viability assay that quantifies the amount of ATP present at the end of an experiment as an indicator of the number of live cells. The electronic controller 155 measures ATP content in each condition as a readout by a luminescent signal, which is normalized by the luminescence of the control (e.g., a control well) to determine cell viability relative to on-plate controls. In some embodiments, the CTG assay is performed by first removing 100 μL of media from each well on the well-plate 105, which is then replaced with an equal amount of CellTiter-Glo reagent (e.g., Promega, G7572). Assayed plates may be shaken at 500 RPM for 20 minutes and allowed to rest for 10 minutes. In some instances, 100 μL of volume from each well is transferred to a white 96-well plate (e.g., Perkin Elmer, 6005680). The electronic controller 155 collects luminescence data from each well using an Envision plate reader (e.g., Perkin Elmer) and normalized against the solvent control to measure ATP content. The electronic controller 155 fits a 4-parameter hill curve to the dose response to determine the EC50 and depth of response.

[4] = test system: MDA-MB-231 cells; experiment: CellTiter-Glo (CTG) ATP viability assay, MDA-MB-231; format: cell-based; details: for Min Asymptote: MDA-MB-231, Hill fit of luminescence normalized to solvent control, one line per replicate; for EC50: Homo sapiens
Protocol: as §4

**Q.** Which “Max Asymptote” value ([1]; 24 h QPI, MCF-7, 4-parameter Hill fit of mean SGR vs concentration, one line per replicate) does the source give for `COc1cccc2c1C(=O)c1c(O)c3c(c(O)c1C2=O)C[C@@](O)(C(=O)CO)C[C@@H]3O[C@H]1C[C@H](N)[C@H](O)[C@H](C)O1` [Doxorubicin] here?
**A.** Its value is 0.03024 and 0.03614 (2×).

**Q.** And the “Hill Slope” value ([1]; 24 h QPI)?
**A.** The value was 0.4225 and 0.5056.

**Q.** What about the “log10(EC50)” value ([1]; 24 h QPI, EC50 in μM per Table 1) of the same compound?
**A.** Its value is 0.2581.

**Q.** What about the “Min Asymptote” value ([1]; 72 h QPI, MCF-7, 4-parameter Hill fit of mean SGR vs concentration, one line per replicate) of the same compound?
**A.** Its value is 0.02487 and 0.02696 and 0.02807.

**Q.** What about the “Hill Slope” value ([1]; 72 h QPI) of the same compound?
**A.** Its value is 1.1171 and 1.2782 and 1.7872.

**Q.** What about the “log10(EC50)” value ([1]; 72 h QPI, EC50 in μM per Table 1) of the same compound?
**A.** Its value is 0.7197 and 0.7012.

**Q.** What about the EC50 ([1]; MCF7, 72 h, read-out: log10(EC50), 72 h QPI, MCF-7, Hill fit (converted), EC50 in μM per Table 1) of the same compound?
**A.** Its EC50 is 0.235 µM.

**Q.** And the EC50 ([1]; MCF7, read-out: EC50, QPI, MCF-7 cell line, QPI growth rate)?
**A.** Its EC50 is 0.2 µM.

**Q.** And the EC50 ([1]; MCF7, read-out: EC50, SD, MCF-7 cell line, EC50 of the standard deviation)?
**A.** The EC50 was 11 µM.

**Q.** What about the “SGR minimum (mean±standard deviation, SD)” value ([1]; MCF-7, 20 μM, highest dose tested) of the same compound?
**A.** The value was −0.003+0.004 h^−1.

**Q.** And the “DoR QPI” value ([1]; MCF-7 cell line, depth of response, QPI)?
**A.** Its value is 1.1.

**Q.** And the “ToR 20 μM” value ([1]; MCF-7 cell line, time of response at 20 μM)?
**A.** Its value is −1.3.

**Q.** And the “Max Asymptote” value ([2]; 24 h QPI)?
**A.** The value was 0.03123 and 0.03492 and 0.03444.

**Q.** And the “Min Asymptote” value ([2]; 24 h QPI)?
**A.** The value was 0.002229 and 0.006476 and 0.003476.

**Q.** And the “Hill Slope” value ([2]; 24 h QPI, MDA-MB-231, Hill fit)?
**A.** The value was 1.1528 and 1.2328 and 1.1155.

**Q.** What about the “Max Asymptote” value ([2]; 72 h QPI) of the same compound?
**A.** Its value is 0.0002323 and 0.002183.

**Q.** And the “Min Asymptote” value ([2]; 72 h QPI)?
**A.** The value was 0.03291 and 0.03136.

**Q.** What about the “Hill Slope” value ([2]; 72 h QPI, MDA-MB-231, Hill fit) of the same compound?
**A.** The value was 0.9982 and 1.1886.

**Q.** What about the “log10(EC50)” value ([2]; 72 h QPI, MDA-MB-231, Hill fit, EC50 in μM per Table 1) of the same compound?
**A.** The value was 1.0414.

**Q.** What about the EC50 ([2]; MDA-MB-231, 72 h, 72 h QPI, MDA-MB-231, Hill fit, EC50 in μM per Table 1, read-out: log10(EC50) (converted)) of the same compound?
**A.** Its EC50 is 0.0794 µM.

**Q.** What about the EC50 ([2]; MDA-MB-231, MDA-MB-231 cell line, EC50 of the standard deviation, read-out: EC50, SD (converted)) of the same compound?
**A.** The EC50 was 0.549 µM.

**Q.** And the EC50 ([2]; MDA-MB-231, MDA-MB-231 cell line, QPI growth rate, read-out: EC50, QPI)?
**A.** Its EC50 is 0.1 µM.

**Q.** What about the “Hellinger distance of SGR distribution from control” value ([2]; MDA-MB-231, 0.08 μM) of the same compound?
**A.** Its value is “greater than the threshold indicating a response”.

**Q.** And the “Hellinger distance of SGR distribution from control” value ([2]; MDA-MB-231, 0.4 μM)?
**A.** Its value is “much greater Hellinger distance from the control”.

**Q.** And the “reduction of heterogeneity (SD of growth rates)” value ([2]; MDA-MB-231, 20 μM, 72 h)?
**A.** Its value is “fourfold”.

**Q.** What about the “growth rate and heterogeneity over time” value ([2]; MDA-MB-231, highest concentration, FIG. 21 F) of the same compound?
**A.** Its value is “simultaneously decreases in growth rate and heterogeneity”.

**Q.** And the “growth rate and heterogeneity over time” value ([2]; MDA-MB-231, middle concentrations, FIG. 21 C-E)?
**A.** The value was “change in growth rate over time with little to no change in heterogeneity”.

**Q.** And the “DoR QPI” value ([2]; MDA-MB-231 cell line, depth of response, QPI)?
**A.** The value was 1.0.

**Q.** And the “ToR 20 μM” value ([2]; MDA-MB-231 cell line, time of response at 20 μM)?
**A.** The value was −3.0.

**Q.** What about the “SGR (specific growth rate)” value ([2]; abrupt decrease in mass during cell death) of the same compound?
**A.** Its value is -0.217 h⁻¹.

**Q.** And the tD ([2]; first 10 h)?
**A.** The tD was 19 h.

**Q.** And the “SGR (specific growth rate)” value ([2]; first 10 h, robust growth)?
**A.** Its value is 0.0358 h⁻¹.

**Q.** And the tD ([2]; next 26 h)?
**A.** The tD was 66 h.

**Q.** And the “SGR (specific growth rate)” value ([2]; next 26 h, reduced growth)?
**A.** Its value is 0.0105 h⁻¹.

**Q.** What about the “SGR (specific growth rate)” value ([2]; subsequent gradual loss of mass) of the same compound?
**A.** The value was -0.0033 h⁻¹.

**Q.** What about the “Hill Slope” value ([3]; 72 h CTG, BT-474, Hill fit) of the same compound?
**A.** The value was 8.999 and 8.652.

**Q.** And the “log10(EC50)” value ([3]; 72 h CTG, BT-474, Hill fit)?
**A.** The value was 0.3455.

**Q.** And the “Min Asymptote” value ([3]; 72 h CTG, BT-474, Hill fit of luminescence normalized to solvent control, one line per replicate)?
**A.** Its value is 0.5407 (2×) and 0.5602.

**Q.** What about the “DoR CTG” value ([3]; BT-474 cell line, depth of response, CellTiter-Glo) of the same compound?
**A.** The value was 0.5.

**Q.** What about the EC50 ([3]; BT-474, 72 h, 72 h CTG, BT-474, Hill fit, read-out: log10(EC50) (converted)) of the same compound?
**A.** The EC50 was 434 nM.

**Q.** And the EC50 ([3]; BT-474, BT-474 cell line, CellTiter-Glo, read-out: EC50, CTG)?
**A.** Its EC50 is 400 nM.

**Q.** What about the “Hill Slope” value ([4]; 24 h CTG, MDA-MB-231, Hill fit) of the same compound?
**A.** Its value is 1.125.

**Q.** What about the “Min Asymptote” value ([4]; 24 h CTG) of the same compound?
**A.** Its value is 0.4072.

**Q.** And the “Hill Slope” value ([4]; 72 h CTG, MDA-MB-231, Hill fit)?
**A.** Its value is 0.8064 and 0.7906.

**Q.** And the “log10(EC50)” value ([4]; 72 h CTG, MDA-MB-231, Hill fit)?
**A.** Its value is 0.5401.

**Q.** What about the “Min Asymptote” value ([4]; 72 h CTG) of the same compound?
**A.** Its value is 0.01711 and 0.03777 (2×).

**Q.** And the EC50 ([4]; MDA-MB-231, 24 h, 24 h CTG, MDA-MB-231, Hill fit, read-out: log10(EC50) (converted))?
**A.** The EC50 was 1250 nM.

**Q.** What about the EC50 ([4]; MDA-MB-231, 72 h, 72 h CTG, MDA-MB-231, Hill fit, read-out: log10(EC50) (converted)) of the same compound?
**A.** The EC50 was 204 nM.

**Q.** What about the EC50 ([4]; MDA-MB-231, MDA-MB-231 cell line, CellTiter-Glo, read-out: EC50, CTG) of the same compound?
**A.** Its EC50 is 300 nM.

**Q.** What about the “DoR CTG” value ([4]; MDA-MB-231 cell line, depth of response, CellTiter-Glo) of the same compound?
**A.** Its value is 1.0.
